Experiment [1] addresses RAC-beta serine/threonine-protein kinase (Homo sapiens) (UniProt P31751). Briefly: Inhibition of AKT2 (unknown origin) assessed as residual activity at 1000 nM by KINOMEscan analysis relative to control.
Experiment [2] addresses Tyrosine-protein kinase Blk (Homo sapiens) (UniProt P51451). Briefly: Inhibition of BLK (unknown origin) assessed as residual activity at 1000 nM by KINOMEscan analysis relative to control.
Experiment [3] has as its target T1, Calcium/calmodulin-dependent protein kinase type IV (Homo sapiens) (UniProt Q16566).
T1 sequence (whole entry): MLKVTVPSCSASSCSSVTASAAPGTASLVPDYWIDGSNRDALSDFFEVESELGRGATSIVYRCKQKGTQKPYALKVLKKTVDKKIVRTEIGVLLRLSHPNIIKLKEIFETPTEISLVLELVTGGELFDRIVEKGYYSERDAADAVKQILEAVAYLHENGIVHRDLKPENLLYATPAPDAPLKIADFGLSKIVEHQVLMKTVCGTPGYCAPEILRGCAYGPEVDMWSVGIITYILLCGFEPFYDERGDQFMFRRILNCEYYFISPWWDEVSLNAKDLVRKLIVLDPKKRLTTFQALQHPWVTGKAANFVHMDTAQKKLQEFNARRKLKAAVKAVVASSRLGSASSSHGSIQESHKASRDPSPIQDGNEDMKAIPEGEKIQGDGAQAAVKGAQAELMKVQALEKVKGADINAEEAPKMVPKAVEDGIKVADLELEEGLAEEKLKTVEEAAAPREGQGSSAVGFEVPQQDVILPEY
Briefly: Inhibition of CAMK4 (unknown origin) assessed as residual activity at 1000 nM by KINOMEscan analysis relative to control.

The target in experiment [4] is Macrophage colony-stimulating factor 1 receptor (Homo sapiens) (UniProt P07333). Briefly: Inhibition of autoinhibited CSF1R (unknown origin) assessed as residual activity at 1000 nM by KINOMEscan analysis relative to control.
Macrophage colony-stimulating factor 1 receptor (Homo sapiens), sequence (P07333 whole entry): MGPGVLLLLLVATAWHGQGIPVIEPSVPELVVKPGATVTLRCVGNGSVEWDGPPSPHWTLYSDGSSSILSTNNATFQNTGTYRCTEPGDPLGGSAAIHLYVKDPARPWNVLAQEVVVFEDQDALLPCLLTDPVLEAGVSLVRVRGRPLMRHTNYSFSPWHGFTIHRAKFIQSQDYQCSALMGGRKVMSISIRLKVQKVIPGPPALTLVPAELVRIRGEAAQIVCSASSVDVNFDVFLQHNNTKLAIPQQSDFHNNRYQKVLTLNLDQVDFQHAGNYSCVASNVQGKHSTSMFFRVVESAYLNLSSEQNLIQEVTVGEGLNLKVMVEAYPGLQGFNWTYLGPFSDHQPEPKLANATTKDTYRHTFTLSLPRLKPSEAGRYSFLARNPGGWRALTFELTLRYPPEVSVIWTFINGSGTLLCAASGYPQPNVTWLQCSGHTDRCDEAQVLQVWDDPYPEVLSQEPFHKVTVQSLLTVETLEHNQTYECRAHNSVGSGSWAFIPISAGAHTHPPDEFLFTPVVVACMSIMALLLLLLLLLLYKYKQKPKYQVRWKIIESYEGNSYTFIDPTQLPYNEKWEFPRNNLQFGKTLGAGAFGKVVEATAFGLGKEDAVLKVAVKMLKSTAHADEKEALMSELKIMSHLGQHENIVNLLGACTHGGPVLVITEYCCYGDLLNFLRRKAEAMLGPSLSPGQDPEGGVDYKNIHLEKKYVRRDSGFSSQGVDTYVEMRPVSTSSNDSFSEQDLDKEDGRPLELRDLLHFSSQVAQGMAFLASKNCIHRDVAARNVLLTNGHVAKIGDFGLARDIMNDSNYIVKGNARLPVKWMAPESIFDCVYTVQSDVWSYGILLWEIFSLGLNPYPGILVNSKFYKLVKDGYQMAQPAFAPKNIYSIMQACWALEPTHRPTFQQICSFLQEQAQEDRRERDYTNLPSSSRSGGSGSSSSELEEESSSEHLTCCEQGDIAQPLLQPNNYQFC
Experiment [5] addresses Dual specificity tyrosine-phosphorylation-regulated kinase 1A (Homo sapiens) (UniProt Q13627). Briefly: Inhibition of DYRK1A (unknown origin) assessed as residual activity at 1000 nM by KINOMEscan analysis relative to control.
Experiment [6] relates to Epidermal growth factor receptor (Homo sapiens), P00533 [G719S]. Briefly: Inhibition of EGFR G719S mutant (unknown origin) assessed as residual activity at 1000 nM by KINOMEscan analysis relative to control.
Experiment [7] relates to Epidermal growth factor receptor (Homo sapiens), P00533 [T790M]. Briefly: Inhibition of EGFR T790M mutant (unknown origin) assessed as residual activity at 1000 nM by KINOMEscan analysis relative to control.
The target in experiment [8] is T2, Mitogen-activated protein kinase kinase kinase 13 (Homo sapiens) (UniProt O43283).
T2 sequence (whole entry): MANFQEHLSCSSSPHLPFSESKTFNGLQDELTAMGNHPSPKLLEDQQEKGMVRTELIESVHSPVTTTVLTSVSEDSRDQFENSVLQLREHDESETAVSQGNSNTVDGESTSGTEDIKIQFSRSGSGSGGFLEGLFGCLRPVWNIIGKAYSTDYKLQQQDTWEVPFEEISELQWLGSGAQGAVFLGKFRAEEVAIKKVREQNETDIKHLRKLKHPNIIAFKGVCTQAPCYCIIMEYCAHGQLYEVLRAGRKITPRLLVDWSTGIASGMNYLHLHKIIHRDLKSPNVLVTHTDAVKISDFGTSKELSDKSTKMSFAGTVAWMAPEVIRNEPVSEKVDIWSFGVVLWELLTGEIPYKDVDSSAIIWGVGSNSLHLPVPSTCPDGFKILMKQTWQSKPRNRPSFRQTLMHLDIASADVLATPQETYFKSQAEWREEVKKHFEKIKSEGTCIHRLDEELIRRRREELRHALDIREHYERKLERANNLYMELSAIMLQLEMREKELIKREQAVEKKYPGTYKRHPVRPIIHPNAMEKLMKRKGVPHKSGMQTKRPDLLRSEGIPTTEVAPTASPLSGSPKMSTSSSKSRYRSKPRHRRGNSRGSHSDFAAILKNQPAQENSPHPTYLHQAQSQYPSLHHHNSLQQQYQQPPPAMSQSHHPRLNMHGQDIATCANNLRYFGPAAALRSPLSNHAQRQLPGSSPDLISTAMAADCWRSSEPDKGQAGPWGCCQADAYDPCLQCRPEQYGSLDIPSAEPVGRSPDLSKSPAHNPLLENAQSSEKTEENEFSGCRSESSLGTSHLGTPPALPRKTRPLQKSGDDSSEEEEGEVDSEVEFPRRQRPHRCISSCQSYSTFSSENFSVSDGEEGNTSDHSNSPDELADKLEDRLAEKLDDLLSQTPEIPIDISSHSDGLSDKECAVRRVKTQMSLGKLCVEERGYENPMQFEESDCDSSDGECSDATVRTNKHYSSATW
Briefly: Inhibition of LZK (unknown origin) assessed as residual activity at 1000 nM by KINOMEscan analysis relative to control.

The target of experiment [9] is Protein kinase C theta type (Homo sapiens) (UniProt Q04759). Briefly: Inhibition of PRKCQ (unknown origin) assessed as residual activity at 1000 nM by KINOMEscan analysis relative to control.
Protein kinase C theta type (Homo sapiens), sequence (Q04759 whole entry, looked up): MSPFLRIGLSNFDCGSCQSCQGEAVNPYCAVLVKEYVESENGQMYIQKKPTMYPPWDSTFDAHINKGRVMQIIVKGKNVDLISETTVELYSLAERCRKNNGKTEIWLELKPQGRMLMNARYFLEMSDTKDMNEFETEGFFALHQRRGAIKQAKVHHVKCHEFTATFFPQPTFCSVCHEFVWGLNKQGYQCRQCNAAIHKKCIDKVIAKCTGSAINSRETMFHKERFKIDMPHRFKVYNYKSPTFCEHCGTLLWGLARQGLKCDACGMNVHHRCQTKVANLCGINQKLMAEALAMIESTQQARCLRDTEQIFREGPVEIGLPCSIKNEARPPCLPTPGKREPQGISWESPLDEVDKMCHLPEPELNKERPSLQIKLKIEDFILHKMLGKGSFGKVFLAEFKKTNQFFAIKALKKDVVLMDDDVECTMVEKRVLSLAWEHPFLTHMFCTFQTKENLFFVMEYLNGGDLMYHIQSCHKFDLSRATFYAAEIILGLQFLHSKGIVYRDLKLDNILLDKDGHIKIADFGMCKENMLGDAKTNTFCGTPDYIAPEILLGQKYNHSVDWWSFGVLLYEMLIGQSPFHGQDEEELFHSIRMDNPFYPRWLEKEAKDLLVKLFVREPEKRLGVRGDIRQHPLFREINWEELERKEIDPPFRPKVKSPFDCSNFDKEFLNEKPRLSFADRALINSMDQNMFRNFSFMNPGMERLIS

RAC-beta serine/threonine-protein kinase (Homo sapiens), sequence (P31751 whole entry): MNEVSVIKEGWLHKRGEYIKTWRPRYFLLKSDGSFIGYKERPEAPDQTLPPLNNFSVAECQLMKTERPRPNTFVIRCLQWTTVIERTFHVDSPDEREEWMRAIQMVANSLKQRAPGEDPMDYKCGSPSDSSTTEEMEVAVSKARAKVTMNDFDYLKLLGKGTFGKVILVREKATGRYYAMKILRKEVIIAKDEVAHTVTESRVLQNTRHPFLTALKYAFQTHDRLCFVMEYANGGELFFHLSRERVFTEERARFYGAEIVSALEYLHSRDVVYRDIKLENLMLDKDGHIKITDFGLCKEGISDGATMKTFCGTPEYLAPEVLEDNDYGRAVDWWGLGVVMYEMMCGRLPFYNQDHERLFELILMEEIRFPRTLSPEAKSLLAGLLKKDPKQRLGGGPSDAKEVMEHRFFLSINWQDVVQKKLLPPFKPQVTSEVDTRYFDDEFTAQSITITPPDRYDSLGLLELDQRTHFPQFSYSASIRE
Tyrosine-protein kinase Blk (Homo sapiens), sequence (P51451 2-505 limits assumed): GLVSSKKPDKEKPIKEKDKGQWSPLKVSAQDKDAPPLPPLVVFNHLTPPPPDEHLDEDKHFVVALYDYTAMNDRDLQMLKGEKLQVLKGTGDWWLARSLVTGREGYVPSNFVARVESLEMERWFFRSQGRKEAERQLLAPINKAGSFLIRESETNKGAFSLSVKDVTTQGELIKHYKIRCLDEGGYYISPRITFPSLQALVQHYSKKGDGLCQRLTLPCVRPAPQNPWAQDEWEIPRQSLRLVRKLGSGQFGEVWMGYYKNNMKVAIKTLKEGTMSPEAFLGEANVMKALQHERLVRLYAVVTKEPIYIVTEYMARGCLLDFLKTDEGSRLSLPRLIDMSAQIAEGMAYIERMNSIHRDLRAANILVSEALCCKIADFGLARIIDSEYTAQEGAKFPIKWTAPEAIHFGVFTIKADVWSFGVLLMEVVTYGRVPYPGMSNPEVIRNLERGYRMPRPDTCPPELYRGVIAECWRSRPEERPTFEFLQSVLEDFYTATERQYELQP

Turning to `COc1cc2nc(C)nc(N[C@H](C)c3cccc(-c4cn[nH]c4)c3)c2cc1OC`, the Activity in [1] was 99%; in experiment [2], 100%; in [3], 92%; in experiment [4] it was 97%; in experiment [5] it was 86%; in [6], 76%. Further, the Activity in experiment [7] stood at 87%; in [8] it was 94%; in experiment [9] it was 84%.
For `COc1cc2ncnc(N[C@H](C)c3cccc4ccccc34)c2cc1OC`, the Activity worked out at 100% in [1]; 53% in [2]; 100% in experiment [3]; 93% in experiment [4]; 83% in experiment [5]; 1.2% in experiment [6]. For the same molecule, the results for the Activity in experiment [7], in experiment [8] and in experiment [9] were 81%, 99% and 100%, respectively.

Values taken from ChEMBL document CHEMBL5678818, “Discovery of potent SOS1 inhibitors that block RAS activation via disruption of the RAS-SOS1 interaction” (Proc Natl Acad Sci U S A, 2019).
